Laboratory results as given in patent US20040044006A1, “Methods of use of quinolone compounds against pneumococcal and haemophilus bacteria” (priority 1999, published 2004).
≈ marks a conversion by molar mass, not a printed value. Like-named read-outs stand apart in the source and are kept apart here.

Tests used:
Type in all cases: cell-based, Streptococcus pneumoniae
[1] = test system: quinolone resistant pneumococci; test: Determination of efflux mechanism: MICs in the presence and absence of reserpine
Description: MICs were determined in the presence and absence of 10 μg/ml of reserpine (Sigma Chemicals, St. Louis, Mo.) as known in the art.
MICs were determined in the presence and absence of […] of reserpine (Sigma Chemicals, St. Louis, Mo., USA) as described previously (Brenwald, et al., Antimicrob. Agents Chemother. 42:2039-2035, 1998 and Davies, et al., Antimicrob. Agents Chemother. 43:1177-1182S, 1999).

[2] = test system: penicillin susceptible and resistant pneumococcal strains (2 quinolone resistant); test: Time-kill testing of 12 pneumococcal strains; settings: 12 penicillin susceptible and resistant pneumococcal strains; 24 h; bactericidal = ≧3 log10 cfu/ml (99.9%) reduction
Outline: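 Pneumococci at 5×10^5–5×10^6 cfu/ml were exposed to doubling antibiotic concentrations in cation-adjusted Mueller-Hinton broth + 5% lysed horse blood at 35 °C with shaking. Viable counts (detection limit 300 cfu/ml) were taken at 0, 3, 6, 12 and 24 h.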

[3] = test system: pneumococci with ciprofloxacin MICs ≧8 μg/ml; test: Quinolone agar dilution MICs of 28 ciprofloxacin resistant pneumococcal strains, correlated with QRDR mutations
Outline: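 Agar dilution MICs on Mueller-Hinton agar with 5% sheep blood, S. pneumoniae ATCC 49619 as QC in each run. Strains, from the US and several other countries, were also typed for parC, gyrA, parE and gyrB mutations and for efflux.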

[4] = agar dilution, 28 strains with ciprofloxacin MICs ≧8.0 μg/ml

`C[C@@H]1CN(c2c(F)c(N)c3c(=O)c(C(=O)O)cn(C4CC4)c3c2F)C[C@H](C)N1` [Sparfloxacin, sparfloxacin] was tested, and the “lower MICs in the presence of reserpine, fold range over affected strains” value ([1]; 28 quinolone resistant strains, 10 μg/ml reserpine) was 2 ×, the “number of strains with lower MICs in the presence of reserpine” value ([1]; of 28 quinolone resistant strains, 10 μg/ml reserpine) was “one” and the “Number of dilutions decrease after incubation with reserpine” value ([1]; strain 5) was 2X. The “lower MIC in the presence of reserpine (efflux mechanism)” value ([1]; strain 5, 10 μg/ml reserpine) was 2X, the “concentration at which bactericidal after 24 h” value [2] was 2 ×MIC and the MIC50 ([3]; Streptococcus pneumoniae) was 8 µg/mL (≈ 20.4 µM). For the same compound, the MIC90 ([3]; Streptococcus pneumoniae) was 16 µg/mL (≈ 40.8 µM), the MIC ([3]; Streptococcus pneumoniae, read-out: MICs in strains with three or four QRDR mutations, 20 strains, bound holds in all 20 (ciprofloxacin, levofloxacin, sparfloxacin), 19 (grepafloxacin), 10 (trovafloxacin), 18 (gemifloxacin)) was over 1 µg/mL and the MIC ([3]; Streptococcus pneumoniae, read-out: MICs in strains with three or four QRDR mutations, 21 strains, bound holds in all 21 (ciprofloxacin, levofloxacin, sparfloxacin), 20 (grepafloxacin), 11 (trovafloxacin), 19 (gemifloxacin)) was at least 1 µg/mL. For the same compound, the MIC ([3]; Streptococcus pneumoniae, strain 1, ParC S79-F, ParE I460-V, GyrA S81-F, GyrB None) was 4 µg/mL (≈ 10.2 µM), the MIC ([3]; Streptococcus pneumoniae, strain 1, ParC S79-F, ParE I460-V, GyrA S83-F, GyrB None) was 4 µg/mL (≈ 10.2 µM) and the MIC ([3]; Streptococcus pneumoniae, strain 3, ParC D83-N, ParE I460-V, GyrA S81-F, GyrB None) was 1 µg/mL (≈ 2.55 µM). The MIC ([3]; Streptococcus pneumoniae, strain 3, ParC D83-N, ParE I460-V, GyrA S83-F, GyrB None) was 1 µg/mL (≈ 2.55 µM), the MIC ([3]; Streptococcus pneumoniae, strain 4, ParC S79-F, ParE I460-V, GyrA S81-F, GyrB None) was 1 µg/mL (≈ 2.55 µM) and the MIC ([3]; Streptococcus pneumoniae, strain 4, ParC S79-F, ParE I460-V, GyrA S83-F, GyrB None) was 1 µg/mL (≈ 2.55 µM). The MIC ([3]; Streptococcus pneumoniae, strain 5, ParC R95-C, ParE D435-N, GyrA S81-F, GyrB None) was 1 µg/mL (≈ 2.55 µM), the MIC ([3]; Streptococcus pneumoniae, strain 5, ParC R95-C, ParE D435-N, GyrA S83-F, GyrB None) was 1 µg/mL (≈ 2.55 µM) and the MIC ([3]; Streptococcus pneumoniae, strain 6, ParC S79-Y, ParE I460-V, GyrA E85-K, GyrB None) was 8 µg/mL (≈ 20.4 µM). It also gave an MIC ([3]; Streptococcus pneumoniae, strain 6, ParC S79-Y, ParE I460-V, GyrA E87-K, GyrB None) of 8 µg/mL (≈ 20.4 µM), an MIC ([3]; Streptococcus pneumoniae, strain 7, ParC None, ParE I460-V, GyrA None, GyrB None) of 1 µg/mL (≈ 2.55 µM) and an MIC ([3]; Streptococcus pneumoniae, strain 8, ParC S79-Y, ParE None, GyrA None, GyrB None) of 1 µg/mL (≈ 2.55 µM). For the same compound, the MIC ([3]; Streptococcus pneumoniae, strain 9, ParC S79-Y, ParE None, GyrA None, GyrB None) was 2 µg/mL (≈ 5.1 µM), the MIC ([3]; Streptococcus pneumoniae, strain 10, ParC S79-F, ParE I460-V, GyrA S81-C, GyrB None) was 4 µg/mL (≈ 10.2 µM) and the MIC ([3]; Streptococcus pneumoniae, strain 10, ParC S79-F, ParE I460-V, GyrA S83-C, GyrB None) was 4 µg/mL (≈ 10.2 µM). It also gave an MIC ([3]; Streptococcus pneumoniae, strain 11, ParC S79-F, ParE I460-V, GyrA S81-F, GyrB None) of 4 µg/mL (≈ 10.2 µM), an MIC ([3]; Streptococcus pneumoniae, strain 11, ParC S79-F, ParE I460-V, GyrA S83-F, GyrB None) of 4 µg/mL (≈ 10.2 µM) and an MIC ([3]; Streptococcus pneumoniae, strain 12, ParC S79-F, ParE I460-V, GyrA None, GyrB D435-N) of 1 µg/mL (≈ 2.55 µM). The MIC ([3]; Streptococcus pneumoniae, strain 13, ParC S79-F, ParE I460-V, GyrA None, GyrB E474-K) was 8 µg/mL (≈ 20.4 µM), the MIC ([3]; Streptococcus pneumoniae, strain 14, ParC S79-F, ParE I460-V, GyrA S81-F, GyrB None) was 8 µg/mL (≈ 20.4 µM) and the MIC ([3]; Streptococcus pneumoniae, strain 14, ParC S79-F, ParE I460-V, GyrA S83-F, GyrB None) was 8 µg/mL (≈ 20.4 µM). For the same compound, the MIC ([3]; Streptococcus pneumoniae, strain 15, ParC 79-F, ParE I460-V, GyrA S83-F, GyrB None) was 8 µg/mL (≈ 20.4 µM), the MIC ([3]; Streptococcus pneumoniae, strain 15, ParC S79-F, ParE I460-V, GyrA S81-F, GyrB None) was 8 µg/mL (≈ 20.4 µM) and the MIC ([3]; Streptococcus pneumoniae, strain 16, ParC S79-F, ParE I460-V, GyrA S81-F, GyrB None) was 8 µg/mL (≈ 20.4 µM). It also gave an MIC ([3]; Streptococcus pneumoniae, strain 16, ParC S79-F, ParE I460-V, GyrA S83-F, GyrB None) of 8 µg/mL (≈ 20.4 µM), an MIC ([3]; Streptococcus pneumoniae, strain 17, ParC D83-N, ParE None, GyrA S81-F, GyrB None) of 8 µg/mL (≈ 20.4 µM) and an MIC ([3]; Streptococcus pneumoniae, strain 17, ParC D83-N, ParE None, GyrA S83-F, GyrB None) of 8 µg/mL (≈ 20.4 µM). It also gave an MIC ([3]; Streptococcus pneumoniae, strain 18, ParC S79-F, ParE I460-V, GyrA S81-F, GyrB None) of 8 µg/mL (≈ 20.4 µM), an MIC ([3]; Streptococcus pneumoniae, strain 18, ParC S79-F, ParE I460-V, GyrA S83-F, GyrB None) of 8 µg/mL (≈ 20.4 µM) and an MIC ([3]; Streptococcus pneumoniae, strain 19, ParC S79-F, ParE I460-V, GyrA S81-F, GyrB None) of 8 µg/mL (≈ 20.4 µM). For the same compound, the MIC ([3]; Streptococcus pneumoniae, strain 19, ParC S79-F, ParE I460-V, GyrA S83-F, GyrB None) was 8 µg/mL (≈ 20.4 µM), the MIC ([3]; Streptococcus pneumoniae, strain 20, ParC S79-F, ParE I460-V, GyrA E85-K, GyrB None) was 8 µg/mL (≈ 20.4 µM) and the MIC ([3]; Streptococcus pneumoniae, strain 20, ParC S79-F, ParE I460-V, GyrA E87-K, GyrB None) was 8 µg/mL (≈ 20.4 µM). It also gave an MIC ([3]; Streptococcus pneumoniae, strain 21, ParC S79-F, ParE I460-V, GyrA S81-F, GyrB None) of 8 µg/mL (≈ 20.4 µM), an MIC ([3]; Streptococcus pneumoniae, strain 21, ParC S79-F, ParE I460-V, GyrA S83-F, GyrB None) of 8 µg/mL (≈ 20.4 µM) and an MIC ([3]; Streptococcus pneumoniae, strain 22, ParC S79-F, ParE I460-V, GyrA S81-Y, GyrB None) of 8 µg/mL (≈ 20.4 µM). For the same compound, the MIC ([3]; Streptococcus pneumoniae, strain 22, ParC S79-F, ParE I460-V, GyrA S83-Y, GyrB None) was 8 µg/mL (≈ 20.4 µM), the MIC ([3]; Streptococcus pneumoniae, strain 23, ParC S79-Y, ParE None, GyrA S81-A, GyrB None) was 8 µg/mL (≈ 20.4 µM) and the MIC ([3]; Streptococcus pneumoniae, strain 23, ParC S79-Y, ParE None, GyrA S83-A, GyrB None) was 8 µg/mL (≈ 20.4 µM). The MIC ([3]; Streptococcus pneumoniae, strain 26, ParC S79-F, ParE None, GyrA S81-Y, GyrB None) was over 32 µg/mL, the MIC ([3]; Streptococcus pneumoniae, strain 26, ParC S79-F, ParE None, GyrA S83-Y, GyrB None) was over 32 µg/mL and the MIC ([3]; Streptococcus pneumoniae, strain 27, ParC S79-Y, ParE I460-V, GyrA S81-F, GyrB None) was over 32 µg/mL. The MIC ([3]; Streptococcus pneumoniae, strain 27, ParC S79-Y, ParE I460-V, GyrA S83-F, GyrB None) was over 32 µg/mL, the MIC ([3]; Streptococcus pneumoniae, strain 28, ParC D83-G N91-D, ParE None, GyrA S81-F S114-G, GyrB None) was over 32 µg/mL and the MIC ([3]; Streptococcus pneumoniae, strain 28, ParC cell empty, ParE None, GyrA S83-F and S116-G, GyrB None) was over 32 µg/mL. For the same compound, the MIC50 [3, 4] was 8.0 µg/mL (≈ 20.4 µM) and the MIC90 [3, 4] was 16.0 µg/mL (≈ 40.8 µM).
